# Values of other authors in patent US20010050137A1, “Anti-microbial shoe linings, sock liners, and socks and process for manufacture of same” (priority 1995, published 2001).
# Read-outs that look alike come from different tables or passages of the source.
# Assays:
# [1] = for Solubility: 25° C.
# Staphylococcus aureus = conditions: ATCC 6538; approx. 10^6 organisms/ml; DMSO cosolvent
# Streptococcus faecalis = conditions: ATCC 19433; approx. 10^6 organisms/ml; DMSO cosolvent
# Escherichia coli = conditions: ATCC 9637; approx. 10^6 organisms/ml; DMSO cosolvent
# Pseudomonas aeruginosa = conditions: ATCC 9721; approx. 10^6 organisms/ml; DMSO cosolvent
# Klebsiella pheumoniae = conditions: ATCC 4352; approx. 10^6 organisms/ml; DMSO cosolvent
# Fusarium sp. = conditions: approx. 10^5 colony-forming units/ml spores; DMSO cosolvent
# Aspergillus niger = conditions: ATCC 9542; approx. 10^5 colony-forming units/ml spores; DMSO cosolvent
# Aureobasidium pullulans = conditions: ATCC 9348; approx. 10^5 colony-forming units/ml spores; DMSO cosolvent
# Chaetomium globosum = conditions: ATCC 6205; approx. 10^5 colony-forming units/ml spores; DMSO cosolvent
# Gliocladium virens = conditions: ATCC 9645; approx. 10^5 colony-forming units/ml spores; DMSO cosolvent
# Penicillium pinophilum = conditions: ATCC 9644; approx. 10^5 colony-forming units/ml spores; DMSO cosolvent
# Candida Albicans = conditions: ATCC 11651; DMSO cosolvent
# Pityrosporum Ovale = conditions: DMSO cosolvent
# [2] = tested on: Streptoverticillium reticulum; conditions: ATCC 25607; DMSO cosolvent
# Trentopholia odorata = conditions: DMSO cosolvent
# Anacystis montana = conditions: DMSO cosolvent
# Chloroccum tetrasporum = conditions: DMSO cosolvent
# Sctonema hofmaannii = conditions: DMSO cosolvent
# Synechocystis minima = conditions: DMSO cosolvent
# most bacteria = conditions: in general
# [3] = tested on: most fungi (molds and yeasts); conditions: in general
# most algae = conditions: in general
# [4] = commercial product, typical value
# [5] = tested on: algae, mold, mildew and bacteria including E-Coli and Salmonella
compound,measurement,setting,value
"c1cc[n+]2c(c1)[S][Zn-2]1([O]2)[O][n+]2ccccc2[S]1 [Zinc Omadine®, bis[1-hydroxy-2(1H)-pyridinethionato-0,S]-(T-4) zinc]",Solubility,[1]; Castor oil,<0.0001 w/w %
same,Solubility,[1]; Chloroform,0.3 w/w %
same,Solubility,[1]; Diethyleneglycol monoethyl ether,0.01 w/w %
same,Solubility,[1]; Dimethylsulfoxide,4 w/w %
same,Solubility,"[1]; Ethanol, 40A",0.01 w/w %
same,Solubility,[1]; Ethyleneglycol monomethyl ether,0.09 w/w %
same,Solubility,[1]; Isopropanol,0.008 w/w %
same,Solubility,[1]; Isopropyl myristate,<0.0001 w/w %
same,Solubility,[1]; Isopropyl palmitate,<0.0001 w/w %
same,Solubility,"[1]; Mineral oil, light",<0.0001 w/w %
same,Solubility,[1]; Olive oil,<0.0003 w/w %
same,Solubility,[1]; Polyethylene glycol 400,0.2 w/w %
same,Solubility,[1]; Propylene glycol,0.02 w/w %
same,Solubility,"[1]; Water, pH 7, technical grade material, average",0.0008 w/w %
same,Solubility in water,"[1]; water, 95 percent powder form",insoluble in water
same,Minimum Inhibitory Concentrations,Staphylococcus aureus,4 Micrograms/ml (ppm)
same,Minimum Inhibitory Concentrations,Streptococcus faecalis,16 Micrograms/ml (ppm)
same,Minimum Inhibitory Concentrations,Escherichia coli,8 Micrograms/ml (ppm)
same,Minimum Inhibitory Concentrations,Pseudomonas aeruginosa,512 Micrograms/ml (ppm)
same,Minimum Inhibitory Concentrations,Klebsiella pheumoniae,8 Micrograms/ml (ppm)
same,Minimum Inhibitory Concentrations,Fusarium sp.,32 Micrograms/ml (ppm)
same,Minimum Inhibitory Concentrations,Aspergillus niger,8 Micrograms/ml (ppm)
same,Minimum Inhibitory Concentrations,Aureobasidium pullulans,<2 Micrograms/ml (ppm)
same,Minimum Inhibitory Concentrations,Chaetomium globosum,<2 Micrograms/ml (ppm)
same,Minimum Inhibitory Concentrations,Gliocladium virens,64 Micrograms/ml (ppm)
same,Minimum Inhibitory Concentrations,Penicillium pinophilum,<2 Micrograms/ml (ppm)
same,Minimum Inhibitory Concentrations,Candida Albicans,<2 Micrograms/ml (ppm)
same,Minimum Inhibitory Concentrations,Pityrosporum Ovale,4 Micrograms/ml (ppm)
same,Minimum Inhibitory Concentrations,[2],4 Micrograms/ml (ppm)
same,Minimum Inhibitory Concentrations,Trentopholia odorata,<0.06 Micrograms/ml (ppm)
same,Minimum Inhibitory Concentrations,Anacystis montana,<0.06 Micrograms/ml (ppm)
same,Minimum Inhibitory Concentrations,Chloroccum tetrasporum,8 Micrograms/ml (ppm)
same,Minimum Inhibitory Concentrations,Sctonema hofmaannii,0.5 Micrograms/ml (ppm)
same,Minimum Inhibitory Concentrations,Synechocystis minima,<0.06 Micrograms/ml (ppm)
same,MIC in vitro,most bacteria,less than 50 ppm
same,MIC in vitro,[3],less than 5 ppm
same,MIC in vitro,most algae,less than 1 ppm
same,Heat Stability: time stable,[4]; at 100° C.,at least 120 hours
same,decomposition temperature,[4],240 °C
same,inhibiting the growth of microorganisms,[5],capable of inhibiting the growth
